We go through 3 compounds from patent publication US20240349726A1, “SUBSTITUTED 1,2,4-THIADIAZOLYL NICOTINAMIDES, SALTS OR N-OXIDES THEREOF AND THEIR USE AS HERBICIDALLY ACTIVE SUBSTANCES” (Bayer Aktiengesellschaft, priority 2021, published 2024).

Common to all, as to format: in vivo
The test system of assay [1] is Stellaria media. The assay can be described thus: Herbicidal post-emergence action, STEME. As to conditions: assessed visually after ca. 3 weeks vs untreated controls. The source says:
(§1) Seeds of mono- and dicotyledonous weed plants were sown in plastic pots (double sowings with one species of mono- and one species of dicotyledonous weed plants per pot), in sandy loam, covered with soil and grown under controlled growth conditions. 2 to 3 weeks after sowing, the test plants were sprayed in the single-leaf stage. The compounds according to the invention, formulated in the form of wettable powders (WP) or as emulsifiable concentrates (EC), were sprayed onto the green plant parts as an aqueous suspension or as an emulsion, with the addition of 0.5% of an additive, at an application rate of 600 litres of water per hectare (converted). The test plants were placed in the greenhouse for ca. 3 weeks under optimum growth conditions, and then the effect of the preparations is assessed visually in comparison with untreated controls (herbicidal effect in percent (%): 100% effect=plants have died, 0% effect=as control plants). […]

Assay [2] deals with Matricaria inodora. Put plainly: Herbicidal post-emergence action, MATIN. As to conditions: assessed visually after ca. 3 weeks vs untreated controls.
From the text: as §1

The subject of assay [3] is Poa annua. Put plainly: Herbicidal post-emergence action, POAAN. The note with it: assessed visually after ca. 3 weeks vs untreated controls.
From the text: as §1

Assay [4] concerns Matricaria inodora. Put plainly: Herbicidal pre-emergence action, MATIN. The note with it: visual grading after ca. 3 weeks vs untreated controls. The source says:
(§2) Seeds of mono- and dicotyledonous weed plants were sown in plastic pots (double sowings with one species of mono- and one species of dicotyledonous weed plants per pot), in sandy loam, and covered with soil. The compounds according to the invention, formulated in the form of wettable powders (WP) or as emulsifiable concentrates (EC), were applied to the surface of the covering soil as an aqueous suspension or as an emulsion, with the addition of 0.5% of an additive, at an application rate of 600 litres of water per hectare (converted). Following treatment, the pots were placed in a greenhouse and kept under optimum growth conditions for the test plants. The visual grading of the damage to the test plants is carried out after ca. 3 weeks in comparison to untreated controls (herbicidal effect in percent (%): 100% effect=plants have died, 0% effect=as control plants). Seeds of mono- and dicotyledonous weed plants were sown in plastic pots (double sowings with one species of mono- and one species of dicotyledonous weed plants per pot), in sandy loam, and covered with soil. The compounds according to the invention, formulated in the form of wettable powders (WP) or as emulsifiable concentrates (EC), were applied to the surface of the covering soil as an aqueous suspension or as an emulsion, with the addition of 0.5% of an additive, at an application rate of 600 litres of water per hectare (converted). Following treatment, the pots were placed in a greenhouse and kept under optimum growth conditions for the test plants. The visual grading of the damage to the test plants is carried out after ca. 3 weeks in comparison to untreated controls (herbicidal effect in percent (%): 100% effect=plants have died, 0% effect=as control plants).

Assay [5] concerns Lolium rigidum. The assay can be described thus: Herbicidal pre-emergence action, LOLRI. As to conditions: visual grading after ca. 3 weeks vs untreated controls.
From the text: as §2

Assay [6] has as its system Setaria viridis. Put plainly: Herbicidal pre-emergence action, SETVI. The note with it: 1280 g/ha, visual grading after ca. 3 weeks vs untreated controls. From the text:
Seeds of mono- and dicotyledonous weed plants were sown in plastic pots (double sowings with one species of mono- and one species of dicotyledonous weed plants per pot), in sandy loam, and covered with soil. The compounds according to the invention, formulated in the form of wettable powders (WP) or as emulsifiable concentrates (EC), were applied to the surface of the covering soil as an aqueous suspension or as an emulsion, with the addition of 0.5% of an additive, at an application rate of 600 litres of water per hectare (converted). Following treatment, the pots were placed in a greenhouse and kept under optimum growth conditions for the test plants. The visual grading of the damage to the test plants is carried out after ca. 3 weeks in comparison to untreated controls (herbicidal effect in percent (%): 100% effect=plants have died, 0% effect=as control plants).

Assay [7] deals with Amaranthus retroflexus. The assay can be described thus: Herbicidal post-emergence action, AMARE. As to conditions: 1280 g/ha, assessed visually after ca. 3 weeks vs untreated controls.
From the text: as §1

The subject of assay [8] is Stellaria media. Put plainly: Herbicidal pre-emergence action, STEME. The note with it: visual grading after ca. 3 weeks vs untreated controls.
From the text: as §2

The test system of assay [9] is Poa annua. The assay can be described thus: Herbicidal pre-emergence action, POAAN. The note with it: visual grading after ca. 3 weeks vs untreated controls.
From the text: as §2

The subject of assay [10] is Lolium rigidum. The assay can be described thus: Herbicidal post-emergence action, LOLRI. As to conditions: assessed visually after ca. 3 weeks vs untreated controls.
From the text: as §1

In assay [11] the test system is Amaranthus retroflexus. Put plainly: Herbicidal pre-emergence action, AMARE. As to conditions: visual grading after ca. 3 weeks vs untreated controls.
From the text: as §2

For the next assay, the system named is Abutilon theophrasti. Put plainly: Herbicidal post-emergence action, ABUTH. The note with it: 1280 g/ha, assessed visually after ca. 3 weeks vs untreated controls.
From the text: as §1

Assay [12] has as its system Veronica persica. The assay can be described thus: Herbicidal pre-emergence action, VERPE. As to conditions: visual grading after ca. 3 weeks vs untreated controls.
From the text: as §2

In assay [13] the test system is Veronica persica. Put plainly: Herbicidal post-emergence action, VERPE. The note with it: assessed visually after ca. 3 weeks vs untreated controls.
From the text: as §1

The test system of assay [14] is Kochia scoparia. Put plainly: Herbicidal pre-emergence action, KCHSC. The note with it: 1280 g/ha, visual grading after ca. 3 weeks vs untreated controls.
From the text: as §2

For assay [15], the system named is Setaria viridis. Put plainly: Herbicidal post-emergence action, SETVI. As to conditions: 1280 g/ha, assessed visually after ca. 3 weeks vs untreated controls. The source says: Seeds of mono- and dicotyledonous weed plants were sown in plastic pots (double sowings with one species of mono- and one species of dicotyledonous weed plants per pot), in sandy loam, covered with soil and grown under controlled growth conditions. 2 to 3 weeks after sowing, the test plants were sprayed in the single-leaf stage. The compounds according to the invention, formulated in the form of wettable powders (WP) or as emulsifiable concentrates (EC), were sprayed onto the green plant parts as an aqueous suspension or as an emulsion, with the addition of 0.5% of an additive, at an application rate of 600 litres of water per hectare (converted). The test plants were placed in the greenhouse for ca. 3 weeks under optimum growth conditions, and then the effect of the preparations is assessed visually in comparison with untreated controls (herbicidal effect in percent (%): 100% effect=plants have died, 0% effect=as control plants).

The next assay has as its system Alopecurus myosuroides. The assay can be described thus: Herbicidal post-emergence action, ALOMY. The note with it: assessed visually after ca. 3 weeks vs untreated controls.
From the text: as §1

In assay [16] the test system is Kochia scoparia. Put plainly: Herbicidal post-emergence action, KCHSC. The note with it: assessed visually after ca. 3 weeks vs untreated controls.
From the text: as §1

As for `O=C(Nc1ncns1)c1cnccc1C(F)(F)F` [Example I-001], the “herbicidal effect STEME” value with Stellaria media [1] (320 g/ha), in the assay with Stellaria media [1] (1280 g/ha), in the assay on Stellaria media [8] (320 g/ha) and in the assay with Stellaria media [8] (1280 g/ha) was 100% in each case. The figures for the “herbicidal effect MATIN” value in the assay on Matricaria inodora [2] (320 g/ha), in the assay with Matricaria inodora [2] (1280 g/ha) and in the assay with Matricaria inodora [4] (1280 g/ha) were 90%, 100% and 100%, respectively. The “herbicidal effect POAAN” value with Poa annua [3] (320 g/ha), with Poa annua [3] (1280 g/ha), with Poa annua [9] (320 g/ha) and in the assay on Poa annua [9] (1280 g/ha) was 100% each time. The “herbicidal effect LOLRI” value in the assay on Lolium rigidum [5] (1280 g/ha) is recorded as 100%; in the assay on Lolium rigidum [10] (1280 g/ha) it was 90%. Further, the “herbicidal effect SETVI” value with Setaria viridis [6] is on record as 90%. For the same compound, the “herbicidal effect AMARE” value with Amaranthus retroflexus [7] stood at 90%; in the assay on Amaranthus retroflexus [11] (320 g/ha), 100%; in the assay on Amaranthus retroflexus [11] (1280 g/ha), 100%.
Consider `O=C(Nc1ncns1)c1c(C(F)(F)F)ccnc1F` [Example I-002], for which the “herbicidal effect STEME” value with Stellaria media [1] (320 g/ha), in the assay with Stellaria media [1] (1280 g/ha), with Stellaria media [8] (320 g/ha) and in the assay with Stellaria media [8] (1280 g/ha) was 100% in each case. The “herbicidal effect MATIN” value in the assay on Matricaria inodora [2] (320 g/ha) is given as 90%; with Matricaria inodora [2] (1280 g/ha), 100%; in the assay on Matricaria inodora [4] (320 g/ha), 90%; in the assay with Matricaria inodora [4] (1280 g/ha), 100%. Also, the “herbicidal effect ABUTH” value in the assay with Abutilon theophrasti came out at 90%. Besides, the “herbicidal effect VERPE” value was determined as 90% with Veronica persica [12] (320 g/ha), 100% in the assay on Veronica persica [12] (1280 g/ha), 100% in the assay on Veronica persica [13] (320 g/ha) and 100% in the assay with Veronica persica [13] (1280 g/ha). Moreover, the “herbicidal effect POAAN” value in the assay on Poa annua [3] (320 g/ha), in the assay with Poa annua [3] (1280 g/ha), in the assay with Poa annua [9] (320 g/ha) and with Poa annua [9] (1280 g/ha) was 100% each time. The results for the “herbicidal effect KCHSC” value in the assay with Kochia scoparia [14], in the assay on Kochia scoparia [16] (320 g/ha) and in the assay on Kochia scoparia [16] (1280 g/ha) were 90%, 100% and 100%, respectively. Besides, the “herbicidal effect LOLRI” value with Lolium rigidum [5] (320 g/ha) is given as 100%; in the assay on Lolium rigidum [5] (1280 g/ha) it was 100%; in the assay with Lolium rigidum [10] (320 g/ha), 90%; with Lolium rigidum [10] (1280 g/ha) it was 100%. Further, in the assay on Setaria viridis [15], the “herbicidal effect SETVI” value was 90%. The “herbicidal effect AMARE” value was found to be 100% in the assay with Amaranthus retroflexus [7] and 90% in the assay with Amaranthus retroflexus [11] (1280 g/ha). The “herbicidal effect ALOMY” value in the assay with Alopecurus myosuroides (320 g/ha) and in the assay on Alopecurus myosuroides (1280 g/ha) was 100% throughout.
In the case of `O=C(Nc1nc(Cl)ns1)c1cnccc1C(F)(F)F` [Example I-015], the “herbicidal effect STEME” value in the assay on Stellaria media [1] (320 g/ha) and with Stellaria media [1] (1280 g/ha) was 100% each time. The “herbicidal effect MATIN” value in the assay with Matricaria inodora [2] (320 g/ha) is 90%; with Matricaria inodora [2] (1280 g/ha), 100%. For the same compound, the “herbicidal effect VERPE” value in the assay on Veronica persica [13] (320 g/ha) and in the assay with Veronica persica [13] (1280 g/ha) was 90% in each case. In addition, the “herbicidal effect KCHSC” value with Kochia scoparia [14] and in the assay with Kochia scoparia [16] (1280 g/ha) was 90% throughout. Also, in the assay on Setaria viridis [15], the “herbicidal effect SETVI” value is reported as 90%. For the same compound, the “herbicidal effect AMARE” value in the assay on Amaranthus retroflexus [7] is recorded as 100%.
